Laboratory results as given in patent US9308198B2, “Treatment, prevention, and reversal of alcohol-induced brain disease” (priority 2006, dated 2016).

What was measured:
[1] = system: primary cerebellar neuron cultures; conditions: 10 mM for 3 hours; control and ethanol-exposed cultures
Procedure: In vitro experiments were used to examine the effects of ethanol on receptor binding and choline acetyltransferase (ChAT) and acetylcholinesterase (AChE) expression in cerebellar neurons. Primary neuronal cultures were generated with postnatal day 8 rat pup cerebellar tissue (Nikolic et al. Genes Dev. 10:816 (1996)). The cultures were maintained with Dulbecco's modified Eagle's medium (DMEM) supplemented with 5% fetal calf serum, 4 mM glutamine, 100 μM non-essential amino acid mixture (Gibco-BRL, Grand Island, N.Y.), 25 mM KCl, and 9 g/L glucose. Ethanol treatment was accomplished by placing the cultures (seeded in 6-well dishes or 96-well plates) in sealed chambers in which 50 mM ethanol was vaporized from a reservoir tray (de la Monte et al. Alcohol Clin. Exp. Res. 24:716 (2000); Banerjee et al. Alcohol Clin. Exp. Res. 22:2093 (1998)). Control cultures were identically treated but with water added to the reservoir tray. The chambers were flushed with gas containing 75% nitrogen, 20% oxygen, and 5% carbon dioxide. After 96 hours incubation at 37° C., the cells were harvested to measure insulin, IGF-I, and IGF-II receptor binding. Alternatively, the cells were serum-starved for 12 hours and then stimulated with 10 nM insulin, […], 25 nM IGF-II, or vehicle for 16 hours, and RNA was harvested to measure ChAT and AChE expression. Parallel 96-well cultures stimulated with growth factors for 10 minutes were used to measure ATP, or for 16 hours to measure viability, and ChAT or AChE immunoreactivity. […] To examine the effects of membrane cholesterol content on growth factor stimulated neuronal viability and function, identically treated 96-well cultures were stimulated with vehicle, 10 nM insulin, 10 nM IGF-I, or 25 nM IGF-II for 10 minutes and then analyzed for ATP content, or for 16 hours and then used to measure viability and ChAT or AChE immunoreactivity with the MICE assay (de la Monte et al., Biotechniques 26:1073 (1999)). ATP content was measured with the ATPLite assay (Packard, Meriden, Conn.). Viability was measured using the CyQuant assay (Molecular Probes, Eugene, Oreg.). Immunoreactivity was measured directly in the cultured wells using the microtiter immunocytochemical ELISA (MICE) assay (de la Monte et al., Biotechniques 26:1073 (1999)).
The effects of cholesterol or MβCD treatment on neuronal viability (FIGS. 19A-19C), ATP production (energy metabolism; FIGS. 19D-19F), ChAT (FIGS. […]) and AChE (FIGS. 19J-19L) immunoreactivity were examined in cells that were treated as described above and stimulated 12 hours with vehicle (control), 10 nM insulin, 10 nM IGF-I, or 25 nM IGF-II in serum-free medium. […] Viability was measured using the CyQuant assay and ATP content was measured using the ATPLite assay. […]

AChE = AChE immunoreactivity (MICE assay); format: cell-based; conditions: 10 mM for 3 hours; control and ethanol-exposed cells
Procedure: In vitro experiments were used to examine the effects of ethanol on receptor binding and choline acetyltransferase (ChAT) and acetylcholinesterase (AChE) expression in cerebellar neurons. Primary neuronal cultures were generated with postnatal day 8 rat pup cerebellar tissue (Nikolic et al. Genes Dev. 10:816 (1996)). The cultures were maintained with Dulbecco's modified Eagle's medium (DMEM) supplemented with 5% fetal calf serum, 4 mM glutamine, 100 μM non-essential amino acid mixture (Gibco-BRL, Grand Island, N.Y.), 25 mM KCl, and 9 g/L glucose. […] To examine the effects of membrane cholesterol content on growth factor stimulated neuronal viability and function, identically treated 96-well cultures were stimulated with vehicle, 10 nM insulin, 10 nM IGF-I, or 25 nM IGF-II for 10 minutes and then analyzed for ATP content, or for 16 hours and then used to measure viability and ChAT or AChE immunoreactivity with the MICE assay (de la Monte et al., Biotechniques 26:1073 (1999)). ATP content was measured with the ATPLite assay (Packard, Meriden, Conn.). Viability was measured using the CyQuant assay (Molecular Probes, Eugene, Oreg.). Immunoreactivity was measured directly in the cultured wells using the microtiter immunocytochemical ELISA (MICE) assay (de la Monte et al., Biotechniques 26:1073 (1999)). […]

Compound | mitochondrial function (ATP content) [1] | neuronal viability [1] | mean levels of AChE (AChE)
CC(C)CCC[C@@H](C)[C@H]1CC[C@H]2[C@@H]3CC=C4C[C@@H](O)CC[C@]4(C)[C@H]3CC[C@]12C [cholesterol] | broadly reduced | broadly reduced | significantly increased
Methyl-β-cyclodextrin [MβCD] | broadly reduced | broadly reduced | significantly increased
